In publication PMC2865783, “Synthesis, Antiinflammatory and HIV-1 Integrase Inhibitory Activities of 1,2-Bis[5-thiazolyl]ethane-1,2-dione Derivatives” (Indian Journal of Pharmaceutical Sciences, 2009):
Read-outs that look alike come from different tables or passages of the source.

Legend:
[1] = test system: carrageenan-induced rat-paw edema; assay: carrageenan-induced rat paw edema method; format: in vivo; details: for % PROTECTION: Table 3, all compounds screened at 100 mg/kg body weight; for antiinflammatory activity (in words): carrageenan-induced rat paw edema, 100 mg/kg
Experimental: (§1) Phenyl isothiocyanate was procured from Lancaster. Methyl isothiocyanate was gift sample from Hitesh Chemicals and Drugs Pvt Ltd, Hyderabad, India. Benzoylisothiocyanate, methoxycarbonyl isothiocyanate, ethoxy carbonyl isothiocyanate, N,N-diethyl actamidine, N,N-diethyl benzamidine, N,N-diethylphenyl acetamidine and 1,4-dibromo butane 2,3-dione were prepared in our lab following the reported procedures. Carrageenin was procured from Spectrochem India limited. HIV-1 integrase assay was done at Department of Pharmaceutical Sciences, School of Pharmacy, University of Southern California, Los Angeles, USA[18]. The reported protocol was followed for carrageenin-induced rat paw edema method[19] for evaluation of antiinflammatory activity. All compounds were screened in a group of 6 animals at dose of 100 mg/kg body weight of the animal. The experimental protocol was approved by the institutional animal ethics committee, constituted as per CPCSEA, Government of India.

HIV-1 integrase = biological target: T1, HIV-1 integrase (Human immunodeficiency virus type 1 group M subtype B, UniProt P12497); assay: extracellular HIV-1 integrase assay (3'-processing and strand transfer); format: biochemical
T1 construct: […]; AS MEASURED IN AN EXT[…]-1 INTEGRASE ASSAY
Text: Integrase (IN) has emerged as an attractive target, because it is necessary for stable infection and homologous enzymes are lacking in the human host[11]. The function of IN is to catalyze integration of proviral DNA, resulting from the reverse transcription of viral RNA, into the host genome. This is achieved in a stepwise fashion by endonucleolytic processing of proviral DNA within a cytoplasmic preintegration complex (termed 3' P-processing or “3'-P”), followed by translocation of the complex into the nuclear compartment where integration of 3'-processed proviral DNA into host DNA occurs in a “strand transfer” (ST) reaction. […] (fig. 1B)[1112]. The presence of diketo pharmacophore in the synthesized compounds made us to screen these compounds in a HIV-1 integrase inhibitory assay.
as §1

[2] = test system: TNF-α release from human peripheral blood mononuclear cells; assay: TNF-α release from human peripheral blood mononuclear cells; format: cell-based
cPLA2 = biological target: T2, cPLA2 (Homo sapiens, UniProt P47712); assay: cPLA2 inhibition; format: biochemical
T2 sequence (P47712 1-749): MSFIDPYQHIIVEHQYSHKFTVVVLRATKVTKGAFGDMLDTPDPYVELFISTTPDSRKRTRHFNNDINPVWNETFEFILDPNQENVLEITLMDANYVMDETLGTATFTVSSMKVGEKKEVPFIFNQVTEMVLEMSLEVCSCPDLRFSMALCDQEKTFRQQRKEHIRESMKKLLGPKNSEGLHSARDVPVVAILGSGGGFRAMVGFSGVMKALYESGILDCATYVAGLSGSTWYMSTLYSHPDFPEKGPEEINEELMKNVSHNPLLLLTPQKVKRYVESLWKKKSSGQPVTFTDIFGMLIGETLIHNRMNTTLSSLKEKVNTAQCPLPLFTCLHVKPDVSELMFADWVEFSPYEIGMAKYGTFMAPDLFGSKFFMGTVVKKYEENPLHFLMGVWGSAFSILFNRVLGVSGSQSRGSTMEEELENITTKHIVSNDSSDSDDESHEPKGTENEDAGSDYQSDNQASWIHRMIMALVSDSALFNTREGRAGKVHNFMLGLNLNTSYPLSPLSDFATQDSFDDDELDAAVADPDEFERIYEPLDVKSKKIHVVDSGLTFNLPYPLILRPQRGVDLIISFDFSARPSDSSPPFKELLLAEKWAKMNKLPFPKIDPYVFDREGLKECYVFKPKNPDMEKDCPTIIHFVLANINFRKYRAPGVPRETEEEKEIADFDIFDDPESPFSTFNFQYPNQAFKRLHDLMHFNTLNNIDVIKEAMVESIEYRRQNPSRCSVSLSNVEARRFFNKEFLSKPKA

[3] = 100 mg/kg b.w, rat paw edema, group of 6 animals, read-out: % PROTECTION Dose 100 mg/kg b.w
[4] = Rattus norvegicus, 100 mg/kg body weight, read-out: protection in the carrageenan rat paw model
[5] = rat paw edema, group of 6 animals
[6] = 3'-processing step, read-out: 3'P inhibitory potency
[7] = strand transfer step, read-out: ST inhibitory potency

Compound | inhibition in vivo at 100 mg/kg [1, 3] [%] | inhibition in vivo at 100 mg/kg [1, 4] [%] | further results
CCOC(=O)Nc1nc(-c2ccccc2)c(C(=O)C(=O)c2sc(NC(=O)OCC)nc2-c2ccccc2)s1 [G-10] | 34 ± 4 | – | –
CCOC(=O)Nc1nc(C)c(C(=O)C(=O)c2sc(NC(=O)OCC)nc2C)s1 [G-5] | 33 ± 0.9 | – | –
O=C(C(=O)c1sc(N2CCN(c3ccccc3)CC2)nc1-c1ccccc1)c1sc(N2CCN(c3ccccc3)CC2)nc1-c1ccccc1 [G-20] | – | > 50 | % PROTECTION [1, 5]: 55±4%; IC50 (HIV-1 integrase; [6]): 122 µM; IC50 (HIV-1 integrase; [7]): 87 µM
O=C(C(=O)c1sc(Nc2ccc(Cl)cc2)nc1-c1ccccc1)c1sc(Nc2ccc(Cl)cc2)nc1-c1ccccc1 [G-8] | 66 ± 1 | > 50 | –
O=C(C(=O)c1sc(N2CCOCC2)nc1-c1ccccc1)c1sc(N2CCOCC2)nc1-c1ccccc1 [G-17] | – | > 50 | % PROTECTION [1, 5]: 81±0.5%; IC50 (HIV-1 integrase; [6]): > 500 µM; IC50 (HIV-1 integrase; [7]): 109 µM; effect on TNF-α release [2]: did not have any effect
O=C(C(=O)c1sc(N2CCCCC2)nc1-c1ccccc1)c1sc(N2CCCCC2)nc1-c1ccccc1 [G-16] | – | > 50 | % PROTECTION [1, 5]: 65±0.8%
O=C(Nc1nc(-c2ccccc2)c(C(=O)C(=O)c2sc(NC(=O)c3ccccc3)nc2-c2ccccc2)s1)c1ccccc1 [G-6] | 74 ± 0.5 | > 50 | IC50 (HIV-1 integrase; [6]): > 500 µM; IC50 (HIV-1 integrase; [7]): 277 µM; effect on TNF-α release [2]: did not have any effect; cPLA2 inhibition (in words) (cPLA2): weakly inhibited; melting point: 234 to 236 °C
COC(=O)Nc1nc(C)c(C(=O)C(=O)c2sc(NC(=O)OC)nc2C)s1 [G-4] | 40 ± 2 | – | –
O=C(C(=O)c1sc(N2CCN(Cc3ccccc3)CC2)nc1-c1ccccc1)c1sc(N2CCN(Cc3ccccc3)CC2)nc1-c1ccccc1 [G-21] | – | > 50 | % PROTECTION [1, 5]: 85±0.3%
O=C(C(=O)c1sc(Nc2ccc(Cl)cc2)nc1Cc1ccccc1)c1sc(Nc2ccc(Cl)cc2)nc1Cc1ccccc1 [G-12] | 72 ± 1 | > 50 | antiinflammatory activity (in words) [1]: good antiinflammatory activity
CCOC(=O)Nc1nc(Cc2ccccc2)c(C(=O)C(=O)c2sc(NC(=O)OCC)nc2Cc2ccccc2)s1 [G-14] | 38 ± 2 | – | –
COC(=O)Nc1nc(Cc2ccccc2)c(C(=O)C(=O)c2sc(NC(=O)OC)nc2Cc2ccccc2)s1 [G-13] | 35 ± 2.5 | – | –
O=C(C(=O)c1sc(Nc2ccccc2)nc1Cc1ccccc1)c1sc(Nc2ccccc2)nc1Cc1ccccc1 [G-11] | 23 ± 2 | – | –
Cc1nc(Nc2ccccc2)sc1C(=O)C(=O)c1sc(Nc2ccccc2)nc1C [G-2] | 23 ± 8 | – | –
O=C(C(=O)c1sc(Nc2ccccc2)nc1-c1ccccc1)c1sc(Nc2ccccc2)nc1-c1ccccc1 [G-7] | 70 ± 0.7 | > 50 | antiinflammatory activity (in words) [1]: good antiinflammatory activity
CNc1nc(C)c(C(=O)C(=O)c2sc(NC)nc2C)s1 [G-1] | 14 ± 7 | – | –
O=C(Nc1nc(Cc2ccccc2)c(C(=O)C(=O)c2sc(NC(=O)c3ccccc3)nc2Cc2ccccc2)s1)c1ccccc1 [G-15] | 47 ± 2.3 | – | –
CN1CCN(c2nc(-c3ccccc3)c(C(=O)C(=O)c3sc(N4CCN(C)CC4)nc3-c3ccccc3)s2)CC1 [G-18] | – | > 50 | % PROTECTION [1, 5]: 60±0.5%
Cc1nc(Nc2ccc(Cl)cc2)sc1C(=O)C(=O)c1sc(Nc2ccc(Cl)cc2)nc1C [G-3] | 73 ± 0.3 | – | IC50 (HIV-1 integrase; [6]): 132 µM; IC50 (HIV-1 integrase; [7]): 397 µM
CCN1CCN(c2nc(-c3ccccc3)c(C(=O)C(=O)c3sc(N4CCN(CC)CC4)nc3-c3ccccc3)s2)CC1 [G-19] | – | > 50 | % PROTECTION [1, 5]: 72±0.5%; effect on TNF-α release [2]: did not have any effect
COC(=O)Nc1nc(-c2ccccc2)c(C(=O)C(=O)c2sc(NC(=O)OC)nc2-c2ccccc2)s1 [G-9] | 26 ± 3 | – | –
